Measurements from ChEMBL document CHEMBL5247618, “Discovery and optimization of 4-anilinoquinazoline derivatives spanning ATP binding site and allosteric site as effective EGFR-C797S inhibitors” (Eur J Med Chem, 2022).

Legend:
in vivo [1] = conditions: Sprague-Dawley, rat, iv, 1 mg/kg
in vivo [2] = conditions: Sprague-Dawley, rat, po, 10 mg/kg
in vivo [3] = conditions: Sprague-Dawley, rat, iv, 1 mg/kg; remark: listed apart in the source
in vivo [4] = conditions: Sprague-Dawley, rat, po, 10 mg/kg; remark: listed apart in the source

COc1cc2c(Nc3ccc(Oc4ccccc4)cc3)ncnc2cc1OCC1CCN(C)CC1
Cmax (in vivo [1]): 0.0696 µg/mL | bioavailability (in vivo [2]): 9.33% | half-life (in vivo [3]): 1.97 h | Cmax (in vivo [4]): 0.00743 µg/mL
